Earlier results, collected in US8124767B2, “Luminescence biotin-transition metal complex conjugate, and method of amplifying signal using the same” (Samsung Electronics Co., Ltd., priority 2008, dated 2012).
pKd: −log10 of the molar value. Where two headings read alike, the source gives them in different places.

What was measured:
[1] = excitation 310 nm, 0.02 mM 2-MeTHF, cited from earlier work
avidin = molecular target: T1, avidin (Gallus gallus, UniProt P02701); conditions: HABA, comparison value; read-out: Kd (binding to avidin); cited from earlier work
T1 construct: purchased Aldrich
T1 sequence (P02701 25-152): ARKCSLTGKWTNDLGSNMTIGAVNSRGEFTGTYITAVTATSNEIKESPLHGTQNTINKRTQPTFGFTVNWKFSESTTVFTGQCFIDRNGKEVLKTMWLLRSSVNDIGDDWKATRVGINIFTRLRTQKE

SMILES | T360 nm, lifetime of the donor peak ([1]; 77 K) [ns] | T411 nm, lifetime of the donor peak ([1]; 77 K) [s] | T360 nm, lifetime of the donor peak ([1]; 298 K) [ns] | pKd (avidin)
Cc1cc(-n2c3ccccc3c3ccccc32)cc(-n2c3ccccc3c3ccccc32)c1 [Probe 5mCP] | 8.2 | 7.0 | 6.6 | 
O=C(O)c1ccccc1N=Nc1ccc(O)cc1 [HABA, 4,4′-hydroxyazobenzene-2-carboxylic acid] |  |  |  | 5.22
